Results published in ChEMBL document CHEMBL1201862, “PubChem BioAssay data set” (2004).
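A five-concentration, 48-hour dose response in 96-well plates underlies each endpoint, interpolated linearly between surrounding concentrations. GI50 marks 50% less growth.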 Active and inactive are the calls of the source. Rule as the data show it: active = GI50 up to about 1.1 µM and inactive = higher.

Experiments:
Assay in all cases: NCI-60 cell line screen, 48 h
RXF 393 = system: RXF 393
A549 = system: A549
OVCAR-8 = system: OVCAR-8
HL-60 = system: HL-60
UACC-257 = system: UACC-257
U-251 = system: U-251
LOX IMVI = system: LOX IMVI
NCI-H23 = system: NCI-H23
CCRF-CEM = system: CCRF-CEM
SF-268 = system: SF-268
SK-MEL-5 = system: SK-MEL-5
SN12C = system: SN12C
A498 = system: A498
MOLT-4 = system: MOLT-4
OVCAR-5 = system: OVCAR-5
IGROV-1 = system: IGROV-1
NCI-H226 = system: NCI-H226

Measured: GI50

O=[N+]([O-])c1cc(I)cc(/C=N/NS(=O)(=O)c2ccc(F)cc2)c1O
inactive: RXF 393 27 µM | A549 35.5 µM | OVCAR-8 23.6 µM | HL-60 28.4 µM | UACC-257 25.2 µM | U-251 22.4 µM | LOX IMVI 27 µM | NCI-H23 20 µM | CCRF-CEM 22 µM | SF-268 28.9 µM | SK-MEL-5 22.5 µM | SN12C 22.9 µM | A498 36.1 µM | MOLT-4 24.7 µM | OVCAR-5 39 µM | IGROV-1 33.7 µM

Cc1c2n(c3ccccc13)CC1C2N(C)OC1(C)C (stereo not drawn)
inactive: A549 > 100 µM | OVCAR-8 > 100 µM | NCI-H226 > 100 µM | UACC-257 > 100 µM | U-251 > 10 µM | NCI-H23 > 100 µM | CCRF-CEM > 100 µM | SF-268 > 100 µM | SK-MEL-5 > 100 µM | SN12C > 100 µM | MOLT-4 > 100 µM | OVCAR-5 > 100 µM

CCOC(=O)C(=O)Nc1c(C(C)C)cccc1C(C)C
inactive: RXF 393 > 100 µM | A549 > 100 µM | OVCAR-8 > 100 µM | NCI-H226 > 100 µM | HL-60 > 100 µM | UACC-257 > 100 µM | U-251 > 100 µM | NCI-H23 > 100 µM | CCRF-CEM > 100 µM | SF-268 > 100 µM | SK-MEL-5 > 100 µM | SN12C > 100 µM | A498 > 100 µM | MOLT-4 > 100 µM | IGROV-1 > 100 µM

O=[N+]([O-])c1ccc(-c2csc(=[N+]3CCCCC3)s2)cc1
inactive: RXF 393 > 69.2 µM | A549 1.93 µM | OVCAR-8 3.48 µM | HL-60 > 53.2 µM | UACC-257 2.08 µM | U-251 2.54 µM | LOX IMVI 26.1 µM | NCI-H23 4.41 µM | CCRF-CEM 4.91 µM | SF-268 3.93 µM | SK-MEL-5 5.85 µM | SN12C 4.48 µM | A498 2.18 µM | MOLT-4 5.38 µM | OVCAR-5 9.75 µM | IGROV-1 4.48 µM

CC1=N/C(=C\c2cccc([N+](=O)[O-])c2)C(=O)O1
inactive: RXF 393 > 100 µM | A549 > 100 µM | OVCAR-8 > 100 µM | HL-60 > 100 µM | UACC-257 > 100 µM | U-251 > 100 µM | NCI-H23 > 100 µM | CCRF-CEM > 100 µM | SF-268 > 100 µM | SK-MEL-5 > 100 µM | SN12C > 100 µM | A498 > 100 µM | MOLT-4 > 100 µM | OVCAR-5 > 100 µM | IGROV-1 > 100 µM

CCC1C(=O)OCc2c1cc1n(c2=O)CCC12OCCO2 (stereo not drawn)
inactive: A549 > 100 µM | OVCAR-8 > 100 µM | NCI-H226 > 100 µM | HL-60 > 100 µM | UACC-257 > 100 µM | U-251 > 100 µM | LOX IMVI > 100 µM | NCI-H23 > 100 µM | CCRF-CEM > 100 µM | SF-268 > 100 µM | SK-MEL-5 > 100 µM | SN12C > 100 µM | A498 > 100 µM | MOLT-4 > 100 µM | OVCAR-5 > 100 µM | IGROV-1 > 100 µM

O=C(O)c1c[nH]c2c(ccc3ncccc32)c1=O
inactive: RXF 393 > 100 µM | A549 > 100 µM | OVCAR-8 > 100 µM | HL-60 > 100 µM | U-251 > 100 µM | LOX IMVI > 100 µM | NCI-H23 > 100 µM | CCRF-CEM > 100 µM | SF-268 > 100 µM | SK-MEL-5 > 100 µM | SN12C > 100 µM | A498 > 100 µM | MOLT-4 > 100 µM | OVCAR-5 > 100 µM | IGROV-1 > 100 µM

Cc1ccc(S(=O)(=O)C2c3nc4ccccc4cc3-c3nc4ccccc4nc32)cc1 (stereo not drawn)
inactive: A549 > 100 µM | OVCAR-8 > 100 µM | HL-60 > 100 µM | UACC-257 > 100 µM | U-251 > 100 µM | LOX IMVI > 100 µM | NCI-H23 > 100 µM | CCRF-CEM > 100 µM | SF-268 > 100 µM | SK-MEL-5 51.8 µM | SN12C > 100 µM | A498 > 100 µM | MOLT-4 > 100 µM | OVCAR-5 > 100 µM | IGROV-1 > 100 µM

Cc1cc(C)nc(Sc2c([N+](=O)[O-])ncn2C)n1
inactive: A549 > 100 µM | OVCAR-8 > 100 µM | NCI-H226 > 100 µM | UACC-257 > 100 µM | U-251 > 100 µM | LOX IMVI 57.1 µM | NCI-H23 > 100 µM | CCRF-CEM 56.9 µM | SF-268 > 100 µM | SK-MEL-5 > 100 µM | SN12C > 100 µM | A498 > 100 µM | MOLT-4 69.5 µM | OVCAR-5 > 100 µM | IGROV-1 > 100 µM

Nc1c(S(=O)(=O)c2ccc(Cl)cc2)c2nc3ccccc3nc2n2ccnc12
inactive: A549 85.9 µM | OVCAR-8 48.4 µM | NCI-H226 18.3 µM | HL-60 30.1 µM | UACC-257 > 100 µM | U-251 61.8 µM | NCI-H23 > 100 µM | CCRF-CEM 39.4 µM | SF-268 43.1 µM | SK-MEL-5 > 100 µM | SN12C > 100 µM | MOLT-4 > 100 µM | OVCAR-5 > 100 µM | IGROV-1 98.6 µM

CC(=O)OCC1OC(OC2C(CSC3OC(COC(C)=O)C(OC(C)=O)C(OC(C)=O)C3OC(C)=O)OC(OC(C)=O)C(OC(C)=O)C2OC(C)=O)C(OC(C)=O)C(OC(C)=O)C1OC(C)=O (stereo not drawn)
inactive: A549 > 100 µM | OVCAR-8 > 100 µM | NCI-H226 47.5 µM | U-251 > 100 µM | LOX IMVI > 100 µM | NCI-H23 > 100 µM | CCRF-CEM > 100 µM | SF-268 > 100 µM | SK-MEL-5 > 100 µM | SN12C > 100 µM | MOLT-4 > 100 µM | OVCAR-5 23.7 µM | IGROV-1 > 100 µM

CC(=O)/C(=C\C1=CCCO1)C(=O)Nc1ccccc1C
inactive: RXF 393 > 100 µM | A549 > 100 µM | OVCAR-8 > 100 µM | NCI-H226 > 100 µM | HL-60 > 100 µM | UACC-257 > 100 µM | U-251 > 100 µM | LOX IMVI > 100 µM | NCI-H23 > 100 µM | CCRF-CEM > 100 µM | SF-268 > 100 µM | SK-MEL-5 > 100 µM | SN12C > 100 µM | MOLT-4 > 100 µM | OVCAR-5 > 100 µM | IGROV-1 > 100 µM

O=S1(=O)CSc2ccc3ccccc3c2-c2c1ccc1ccccc21
inactive: RXF 393 > 100 µM | A549 > 100 µM | OVCAR-8 > 100 µM | HL-60 > 100 µM | UACC-257 > 100 µM | U-251 > 100 µM | LOX IMVI > 100 µM | NCI-H23 > 100 µM | CCRF-CEM > 100 µM | SF-268 > 100 µM | SK-MEL-5 > 100 µM | SN12C > 100 µM | MOLT-4 > 100 µM | OVCAR-5 > 100 µM | IGROV-1 > 100 µM
